Target: T1, Hepcidin (Homo sapiens) (UniProt P81172)
T1 sequence (whole entry): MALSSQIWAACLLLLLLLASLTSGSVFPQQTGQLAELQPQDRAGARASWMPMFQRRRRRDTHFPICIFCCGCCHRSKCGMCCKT
Assay: Inhibition of human hepcidin-stimulated recombinant C-terminal Halo-tagged human FPN internalization in MDCK cells at 10 uM incubated for 15 to 20 mins by Halo-tagged TMR based fluorescence assay relative to control
Type: cell-based

SMILES	inhibition [%]
C/C(=N\Nc1cc(N2CCOCC2)nc(C)n1)c1ccc(F)cc1	< 50
COc1ccc(O)c(/C=N/Nc2nc(N3CCOCC3)nc(N3CCOCC3)n2)c1	> 50
Cc1nc(N/N=C/c2ccc(O)cc2O)cc(N2CCOCC2)n1	> 50
Cc1ccc2cc(Nc3nc(N4CCOCC4)nc(N4CCOCC4)n3)ccc2n1	< 50
COc1cnc(-c2ccccn2)nc1NC(C)C	> 50
Cc1nc(-c2ccccn2)nc(NCCNc2cc(C(F)(F)F)ccn2)c1Cl	< 50
Oc1cccc(/C=N/Nc2cc(N3CCOCC3)nc(N3CCOCC3)n2)c1	> 50
CN(c1ccccc1)c1nc(N2CCOCC2)nc(-n2ccnc2)n1	< 50

The next lines start with the values.

inhibition [%]	SMILES
< 50	Nc1nc(-c2ccccn2)nc(N)c1Cc1ccccc1F
> 50	c1ccc(N(c2ccccc2)c2nc(N3CCOCC3)nc(-n3ccnc3)n2)cc1
< 50	Cc1nc(-c2ccccn2)nc(NCCNc2ccc(C(F)(F)F)cn2)c1Cl
> 50	Oc1ccccc1/C=N/Nc1cc(N2CCOCC2)nc(N2CCOCC2)n1

— ChEMBL document CHEMBL4418270, “Novel Pyrimidine- And Triazine-Hepcidine Antagonists” (2012)
